# Read-outs that look alike come from different tables or passages of the source.
# Legend:
# [1] = test system: HCC cell lines, Mahlavu, PLC5, HepG2, and Huh7; test: MTT cell viability test in HCC cell lines
# Procedure: (§1) The HCC cell lines, Mahlavu, PLC5, HepG2, and Huh7, were cultured in Dulbecco's Modified Eagle Medium (DMEM; Seromed, Berlin, Germany) supplemented with 10% heat-inactivated fetal bovine serum, 100 μg/ml streptomycin, 100 μg/ml penicillin, and 2 mM L-glutamine in a humidified atmosphere containing 5% CO2 at 37° C. […] The cells were exposed to different concentrations of the small molecules for 72 hours. Control cells were incubated in the absence of small molecules. Afterwards, the cells were incubated with medium containing MTT for 2 hours. […] For the clonogenic assay, Huh7 cells were seeded out in appropriate dilutions in a 6-well plate and treated with selected small molecules at various concentrations for 15 days. Colonies were fixed with glutaraldehyde (6.0% v/v), stained with crystal violet (0.5% w/v), and counted.
# Huh7 cells = test: Clonogenic assay; type: cell-based; details: for inhibition at 10 µM: Homo sapiens, Huh-7, 360 h; for inhibition at 10 µM / Clonogenic assay: colony number at 10 μM
# Procedure: The HCC cell lines, Mahlavu, PLC5, HepG2, and Huh7, were cultured in Dulbecco's Modified Eagle Medium (DMEM; Seromed, Berlin, Germany) supplemented with 10% heat-inactivated fetal bovine serum, 100 μg/ml streptomycin, 100 μg/ml penicillin, and 2 mM L-glutamine in a humidified atmosphere containing 5% CO2 at 37° C. The viability of the exposed cells was determined using the MTT cell viability assay kit (Sigma-Aldrich, St. Louis, USA), according to the manufacturer's instructions. […] The cells were exposed to different concentrations of the small molecules for 72 hours. Control cells were incubated in the absence of small molecules. Afterwards, the cells were incubated with medium containing MTT for 2 hours. The optical density at 450 nm was measured using a microplate reader (Spectral Max250). For the clonogenic assay, Huh7 cells were seeded out in appropriate dilutions in a 6-well plate and treated with selected small molecules at various concentrations for 15 days. Colonies were fixed with glutaraldehyde (6.0% v/v), stained with crystal violet (0.5% w/v), and counted.
# HCC cell lines = test: Drug efficacy label of top 10 CMap drugs (MTT or clonogenic); type: cell-based; details: Table 2-3; labels (1) and (4); gene set in which the drug ranked top 10;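 further: label 1 means effective by MTT or clonogenic assay and 4 means ineffective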
# Procedure: as §1
# [2] = 72 h, Table 3-1, HCC cell lines, MTT
# [3] = Table 3-1, HCC cell lines, 72 hours, MTT
# [4] = 72 h, Table 2-2, HCC cell lines, MTT
structure (smiles),measurement,setting,value
O=c1cc(-c2ccccc2)oc2cc(O)cc(O)c12 [chrysin],IC50,[1]; [2],> 10 µM
O=C1c2c(O)ccc(O)c2C(=O)c2c(NCCNCCO)ccc(NCCNCCO)c21 [mitoxantrone],IC50,[1]; [2],0.1 to 1 µM
Clc1ccc(CSC(Cn2ccnc2)c2ccc(Cl)cc2Cl)cc1 (stereo not shown) [sulconazole],inhibition at 10 µM,"Huh7 cells; Table 3-1, 15 days",> 50%
same,Clonogenic assay,"Huh7 cells; Table 2-2, 15 days",Effective (Effectiveness in clonogenic assay is defined as reducing more than 50% colony number at 10 μM)
OC(c1cc(C(F)(F)F)nc2c(C(F)(F)F)cccc12)C1CCCCN1 (stereo not shown) [mefloquine],IC50,[1]; [2],1 to 5 µM
O=C(O)CNC(=O)C(CS)Cc1ccccc1 (racemic) [DL-thiorphan],IC50,[1]; [3],> 10 µM
same,Clonogenic assay,"Huh7 cells; Table 3-1, 15 days",Ineffective
N[C@@H]1CON=C1O [cycloserine],IC50,[1]; [2],> 10 µM
same,Clonogenic assay,"Huh7 cells; Table 3-1, 15 days",Ineffective
Nc1nc2nn[nH]c2c(=O)[nH]1 [8-azaguanine],drug efficacy label,HCC cell lines,8-azaguanine (4)
same,IC50,[1]; [4],> 10 µM
same,IC50,[1]; [2],> 10 µM
same,Clonogenic assay,"Huh7 cells; Table 2-2, 15 days",Ineffective
same,Clonogenic assay,"Huh7 cells; Table 3-1, 15 days",Ineffective
CC[C@H]1OC(=O)[C@H](C)[C@@H](O[C@H]2C[C@@](C)(OC)[C@@H](O)[C@H](C)O2)[C@H](C)[C@@H](O[C@@H]2O[C@H](C)C[C@H](N(C)C)[C@H]2O)[C@](C)(O)C[C@@H](C)/C(=N\OCOCCOC)[C@H](C)[C@@H](O)[C@]1(C)O [roxithromycin],IC50,[1]; [2],> 10 µM
C=CCNC1=C2C[C@@H](C)C[C@H](OC)[C@H](O)[C@@H](C)/C=C(\C)[C@H](OC(N)=O)[C@@H](OC)/C=C\C=C(/C)C(=O)NC(=CC1=O)C2=O [tanespimycin],drug efficacy label,HCC cell lines,tanespimycin (1)
same,cell viability / cytotoxicity in HCC cell lines,"[1]; 0.1, 1 and 10 μM, 72 hours, MTT",exhibited cytotoxicity effect
same,IC50,[1]; [4],< 0.1 µM
same,IC50,[1]; [2],< 0.1 µM
same,IC50,"[1]; 72 h, HCC cell lines",< 10 µM
Cc1cc2c(cc1S(N)(=O)=O)S(=O)(=O)CCC2 [meticrane],IC50,[1]; [2],> 10 µM
same,Clonogenic assay,"Huh7 cells; Table 3-1, 15 days",Ineffective
C[C@@H]1C(=O)O[C@H]2C[C@@]34[C@H]5C[C@@H](C(C)(C)C)[C@]36[C@@H](OC(=O)[C@@H]6O)O[C@@]4(C(=O)O5)[C@]21O [ginkgolide A],IC50,[1]; [3],> 10 µM
CC[C@@H](CO)NC(=O)[C@@H]1C=C2c3cccc4[nH]cc(c34)C[C@H]2N(C)C1 [methylergometrine],drug efficacy label,HCC cell lines,methylergometrine (4)
same,IC50,[1]; 72 h,> 10 µM
same,Clonogenic assay,"Huh7 cells; Table 3-1, 15 days",Ineffective
COc1cc(/C=C/C(=O)N2CCC=CC2=O)cc(OC)c1OC [piperlongumine],IC50,[1],1 to 5 µM
CC(COc1ccccc1)N(CCCl)Cc1ccccc1 (stereo not shown) [phenoxybenzamine],drug efficacy label,HCC cell lines,(1) and phenoxybenzamine (1)
same,IC50,[1]; 72 h,> 10 µM
same,IC50,[1]; [3],> 10 µM
same,growth / survival of Huh7 cells,Huh7 cells,could inhibit the survival of Huh7 cells
same,inhibition at 10 µM,"Huh7 cells; Table 3-1, 15 days",> 50%
same,Clonogenic assay,"Huh7 cells; Table 2-2, 15 days",Effective (Effectiveness in clonogenic assay is defined as reducing more than 50% colony number at 10 μM)
CC(C(=O)O)c1cccc(Oc2ccccc2)c1 (stereo not shown) [fenoprofen],IC50,[1]; [2],> 10 µM
Cc1cc(C2CCCCC2)n(O)c(=O)c1 [ciclopirox],IC50,[1]; [2],5 to 10 µM
CC(=O)[C@H]1CC[C@H]2[C@@H]3C[C@H](C)C4=CC(=O)CC[C@]4(C)[C@H]3[C@@H](O)C[C@]12C [Medrysone],drug efficacy label,HCC cell lines,medrysone (4)
same,IC50,[1]; [4],> 10 µM
same,Clonogenic assay,"Huh7 cells; Table 2-2, 15 days",Ineffective
Cn1c([N+](=O)[O-])cnc1COC(N)=O [ronidazole],IC50,[1]; [2],> 10 µM
Nc1ncn([C@@H]2O[C@H](CO)[C@@H](O)[C@H]2O)c(=O)n1 [azacitidine],IC50,[1]; [2],> 10 µM
same,inhibition at 10 µM,"Huh7 cells; Table 3-1, 15 days",> 50%
Cc1ccsc1/C=C/C1=NCCCN1C [morantel],IC50,[1]; 72 h,> 10 µM
Oc1c(I)cc(Cl)c2cccnc12 [clioquinol],IC50,[1]; [2],5 to 10 µM
C[C@]12CC[C@@H]3c4ccc(O)cc4CC[C@H]3[C@@H]1CC[C@H]2O [Alpha-estradiol],drug efficacy label,HCC cell lines,Alpha-estradiol (4)
same,IC50,[1]; [4],> 10 µM
same,Clonogenic assay,"Huh7 cells; Table 2-2, 15 days",Ineffective
CCN(CC)CCOC(=O)c1ccc(N)cc1 [procaine],IC50,[1]; [2],> 10 µM
COc1ccccc1N1CCN(CCCCNC(=O)c2ccc3ccccc3c2)CC1.Cl.Cl [DO 897/99],IC50,[1]; [3],> 10 µM
same,Clonogenic assay,"Huh7 cells; Table 3-1, 15 days",Effective (Effectiveness in clonogenic assay is defined as reducing more than 50% colony number at 10 μM)
COc1c2ccoc2nc2c(OC)c(OCC(O)C(C)(C)O)ccc12 (stereo not shown) [evoxine],IC50,[1]; [2],> 10 µM
same,Clonogenic assay,"Huh7 cells; Table 3-1, 15 days",Ineffective
C=C(C)[C@H]1Cc2c(ccc3c2O[C@@H]2COc4cc(OC)c(OC)cc4[C@@H]2C3=O)O1 [rotenone],IC50,[1]; [2],0.1 to 1 µM
CN(C)C/C=C(/c1ccc(Br)cc1)c1cccnc1 [zimeldine],IC50,[1]; [2],> 10 µM
same,Clonogenic assay,"Huh7 cells; Table 3-1, 15 days",Ineffective
CCCNCC(O)COc1ccccc1C(=O)CCc1ccccc1 (stereo not shown) [propafenone],IC50,[1]; [2],> 10 µM
same,inhibition at 10 µM,"Huh7 cells; Table 3-1, 15 days",> 50%
O=C(O)c1ccccc1C(=O)Nc1ccc(S(=O)(=O)Nc2nccs2)cc1 [phthalylsulfathiazole],IC50,[1]; [2],> 10 µM
same,Clonogenic assay,"Huh7 cells; Table 3-1, 15 days",Ineffective

# Source: patent US20110287953A1, “METHOD FOR DISCOVERING POTENTIAL DRUGS” (priority 2010, published 2011)
